Data taken from patent US11512074B2, “Substituted diamino heterocyclic carboxamide compound and a composition containing the compound and use thereof” (Shenzhen TargetRx, Inc., priority 2018, dated 2022).
Read-outs that look alike come from different tables or passages of the source.

Experiments:
[1] = system: MV-4-11 cells; assay: Inhibition of cell MV-4-11 proliferation (CTG assay); format: cell-based; conditions: Homo sapiens, MV4-11, 72 hours
From the text: (§1) Cell MV-4-11 (ATCC, Cat. No. CRL-9591), cell MOLM-13 (COBIOER, Cat. No. CBP60678), RPMI-1640 (GIBCO, Cat. No. A10491-01), penicillin-streptomycin (GIBCO, Cat. No. 15140-122), fetal bovine serum (GIBCO, Cat. No. 10099-141), phosphate buffer solution PBS (GIBCO, Cat. No. 10010-031), DMSO (Sigma, Cat. No. D8418-1L), CelltiterGlo Assay kit (CTG) (Promega, Cat. No. G7573), 96-well plate with transparent flat bottom and black walls (PerkinElmer, Cat. No. 6005680-50), plate shaker (QILINBEIER, Cat. No. B-9002), centrifuge (Eppendorf, Cat. No. 5804R), CO2 incubator (Thermo Scientific, Cat. No. 371), microscope (OLYMPUS Cat. No. CKX41), multi-plate reader (PerkinElmer, Cat. No. EnVision).
(§2) (2) Preparation of Cell Suspension • a) The medium was collected from the culture bottle and centrifuged at 1000 rpm for 5 min. • b) The supernatant was discarded, and the cells were resuspended in medium containing 10% fetal bovine serum, and counted to prepare a cell suspension (cell viability was greater than 90%). • c) The cell suspension was added into a 96-well plate, with […] in each well, namely 5000 MV-4-11 cells/well; 5000 MOLM-13 cells/well. • d) The cell plate was cultured overnight in a 37° C., 5% CO2 incubator.
(§3) Dilution of Compounds in DMSO: • a) MV-4-11 cells: The compounds were diluted with DMSO from 10 mM to 60 uM, and then subjected to a 3-fold serial gradient dilution in DMSO from 60 uM, resulting in 9 concentrations. • b) MOLM-13 cells: The compounds were diluted with DMSO from 10 mM to 200 uM, and then subjected to a 3-fold serial gradient dilution in DMSO from 200 uM, resulting in 9 concentrations. • c) Compound Taxol was diluted with DMSO from 10 mM to 200 uM, and then subjected to a 3-fold serial gradient dilution in DMSO from 200 uM, resulting in 9 concentrations.
(§4) (4) Treatment of Cells with Compounds (after the Overnight Incubation of the Cell Plate) • a) Each well was replenished with 99 μl of growth medium containing 10% FBS, and then 1 μl of the diluted compound was added to the well. The concentration of DMSO was 0.5%. • b) Concentrations of the tested compounds were: MV-4-11 cells: 300, 100, 33.3, 11.1, 3.7, 1.23, 0.41, 0.137, 0.046, 0 [nM]. • MOLM-13 cells: 1000, 333.3, 111.1, 37.04, 12.35, 4.1, 1.37, 0.46, 0.15, 0 [nM]. • c) Concentrations of control compound Taxol were: 1000, 333.3, 111.1, 37.04, 12.35, 4.12, 1.37, 0.46, 0.15, 0 [nM]. • d) The cell plate was placed in the incubator for 72 hours.
(§5) (5) CTG Assay • a) The test plate was placed at room temperature and equilibrated for 30 minutes, and 60 μl of the culture medium was discarded. • b) 60 μl of CTG reagent (CelltiterGlo kit) was added, and the plate was placed on a rapid plate shaker to shake for 2 min, and then let it stand at room temperature for 20 min. • c) Envision was used to read the values.
(§6) IC50 values were calculated using GraphPad Prism 6 software. The IC50 (half inhibitory concentration) values of the compounds were obtained by the following non-linear fitting formula. Y=Bottom+(Top−Bottom)/(1+10^((Log IC50−X)*HillSlope)) • X: Log value of the compound concentration • Y: Inhibition rate (% inhibition) % inhibition (inhibition rate)=100*(value of the High Control-value of the test compound well)/(value of the High Control-value of the Low Control)

[2] = Pharmacokinetic experiment in rats; format: in vivo, Sprague-Dawley rats; conditions: rat; for AUC(0-t) / Cmax / Tmax / half-life / AUC(0-inf) / MRT inf: male, Sprague-Dawley, plasma; for AUC(0-inf): read-out: AUCINF_pred; for MRT inf: read-out: MRTINF_pred
Method: Six male Sprague-Dawley rats, 7 to 8 weeks old, weighing approximately 210 g, were divided into 2 groups with 3 rats in each group. The pharmacokinetic differences of the compounds were compared after they were administered to the rats at a single dose through vein (in vein 3 mg/kg) or mouth (orally 10 mg/kg).
The rats were fed with standard feed and water, and fasted 16 hours before the experiment. The drugs were dissolved with PEG400 and dimethyl sulfoxide. The blood samples were collected from eyelids at the time point of 0.083, 0.25, 0.5, 1, 2, 4, 6, 8, 12 and 24 hours after administration.
The rats were anesthetized for a short time after inhaling ether, and 300 μL of blood samples was collected from the eyelids and put into test tubes, which contains 30 μL of 1% heparin salt solution. The test tubes were dried overnight at 60° C. prior to use. After the blood sample collection at the last time point, the rats were sacrificed after the ether anesthesia.
Immediately after the collection of the blood samples, the test tubes were gently inverted at least 5 times to ensure the fully mixing and placed on ice. The blood samples were centrifuged at 4° C., 5000 rpm for 5 minutes to separate the plasma from the red blood cells. 100 μL of plasma was pipetted into a clean plastic centrifuge tube, with the name of the compound and time point on it. The plasma was stored at −80° C. before analysis, and LC-MS/MS was used to determine the concentration of the compounds disclosed herein in plasma. Pharmacokinetic parameters were calculated based on the plasma concentrations of each animal at different time points.

[3] = system: MOLM-13 cells; assay: Inhibition of cell MOLM-13 proliferation (CTG assay); format: cell-based; conditions: Homo sapiens, 72 hours, read-out: MOLM-1 IC50
From the text: as §1, §2, §3, §4, §5, §6

[4] = system: Ba/F3 FLT3-ITD cells; assay: Inhibition of Ba/F3 FLT3-ITD cell proliferation (CTG); format: cell-based; conditions: 72 hours, read-out: BaF3 [FLT3-ITD] IC50
Method: (§7) Cell lines were cultured under the condition of 37° C., 5% CO2 and 95% humidity: cell line Ba/F3 parental (suspended, 3000 cells/well, medium was RPMI-1640+10% FBS+8 ng/ml IL-3), cell line Ba/F3 FLT3-ITD (suspended, 3000 cells/well, medium was RPMI-1640+10% FBS)
(§8) Reagents and materials: Fetal bovine serum (FBS, GBICO, Cat. No. 10099-141), CellTiter-Glo® Luminescent Cell Viability Assay (Promega, Cat. No. G7572), 96-well plate with transparent flat bottom and black walls (Corning®, Cat. No. 3603), control compound AC220 (Selleck, Cat. No. S1526).
(§9) Cell Culture and Inoculation: • 1. Cells in the logarithmic growth phase were harvested and counted using a platelet counter. The cell viability was determined by trypan blue exclusion method to ensure that the cell viability was greater than 90%; • 2. The cell concentration was adjusted and 90 μL of the cell suspension was added into a 96-well plate respectively; • 3. The cells in the 96-well plate were cultured overnight under the condition of 37° C., 5% CO2 and 95% humidity.
(§10) Drug Dilution and Dosing: • 1. The 10-fold drug solutions were prepared with a maximum concentration of 100 μM, which was diluted using a 3.16-fold serial gradient dilution, resulting in 9 concentrations. 10 μL of the drug solutions was added to each well of the 96-well plate inoculated with Ba/F3 parental cells; and each drug concentration was set in triplicate. • 2. The 10-fold drug solutions were prepared with a maximum concentration of 10 μM, which was diluted using a 3.16-fold serial gradient dilution, resulting in 9 concentrations. 10 μL of the drug solutions was added to each well of the 96-well plate inoculated with Ba/F3 FLT3-ITD cells; and each drug concentration was set in triplicate. • 3. The cells in the 96-well plate with drugs were cultured at 37° C., 5% CO2 and 95% humidity for 72 hours, and then CTG analysis was carried out.
(§11) Plate Reading at the End Point: • 1. CTG reagent was thawed and the cell plate was equilibrated to room temperature for 30 minutes; • 2. Equal volume of the CTG solution was added to each well; • 3. The cell plate was shaked on the orbital shaker for 5 minutes to lyse the cells; • 4. The cell plate was placed at room temperature for 20 minutes to stabilize the cold light signal; • 5. The cold light values were read.
(§12) GraphPad Prism 8.0 software was used to analyze the data, and the data was fitted using the non-linear S-curve regression to get a dose-effect curve, and IC50 values were calculated. Cell viability (%)=(Lum of test drug−Lum of medium control)/(Lum of cell control−Lum of medium control)×100%.

[5] = system: Ba/F3 parental cells; assay: Inhibition of Ba/F3 parental cell proliferation (CTG); format: cell-based; conditions: Mus musculus, BaF3, 72 hours, with IL-3
Method: as §7, §8, §9, §10, §11, §12

| SMILES | IC50 [1] | AUC(0-t) ([2]; IV 3 mg/kg) | Cmax ([2]; IV 3 mg/kg) | Tmax ([2]; IV 3 mg/kg) | half-life ([2]; IV 3 mg/kg) | AUC(0-inf) ([2]; IV 3 mg/kg) | MRT inf ([2]; IV 3 mg/kg) | AUC(0-t) ([2]; PO 10 mg/kg) | Cmax ([2]; PO 10 mg/kg) | Tmax ([2]; PO 10 mg/kg) | half-life ([2]; PO 10 mg/kg) | AUC(0-inf) ([2]; PO 10 mg/kg) | MRT inf ([2]; PO 10 mg/kg) | Vz_pred ([2]; IV 3 mg/kg) | Vz_pred ([2]; PO 10 mg/kg) | F ([2]; PO 10 mg/kg vs IV 3 mg/kg) | IC50 [3] | IC50 [4] | IC50 [5] |
| --- | --- | --- | --- | --- | --- | --- | --- | --- | --- | --- | --- | --- | --- | --- | --- | --- | --- | --- | --- |
| [2H]C([2H])([2H])C([2H])([2H])c1nc(C(N)=O)c(Nc2ccc(N3CCC(N4CCN(C)CC4)CC3)c(OC)c2)nc1NC1CCOCC1 [Compound T-4, 6-(ethyl-d5)-3-((3-methoxy-4-(4-(4-methylpiperazin-1-yl)piperidin-1-yl)phenyl)amino)-5-((tetrahydro-2H-pyran-4-yl)amino)pyrazine-2-carboxamide] | 1.92 nM | 639 ng·h/mL | 138 ng/mL | 0.08 h | 271 min | 651 ng·h/mL | 4.56 h | 666 ng·h/mL | 61.2 ng/mL | 4 h | 244 min | 687 ng·h/mL | 8.11 h | 30.45 L/kg | 87.60 L/kg | 31.26% | 13 nM | – | – |
| [2H]C([2H])([2H])Oc1cc(Nc2nc(NC3CCOCC3)c(C([2H])([2H])C([2H])([2H])[2H])nc2C(N)=O)ccc1N1CCC(N2CCN(C)CC2)CC1 [Compound T-6, 6-(ethyl-d5)-3-((3-(methoxy-d3)-4-(4-(4-methylpiperazin-1-yl)piperidin-1-yl)phenyl)amino)-5-((tetrahydro-2H-pyran-4-yl)amino)pyrazine-2-carboxamide] | 2.07 nM | – | – | – | – | – | – | – | – | – | – | – | – | – | – | – | 11.9 nM | 69.1 nM | > 10 µM |
| [2H]C1([2H])CN(c2ccc(Nc3nc(NC4CCOCC4)c(CC)nc3C(N)=O)cc2OC)CC([2H])([2H])C1N1CCN(C)CC1 [Compound T-7, 6-ethyl-3-((3-methoxy-4-(4-(4-methylpiperazin-1-yl)piperidin-1-yl-3,3,5,5-d4)phenyl)amino)-5-((tetrahydro-2H-pyran-4-yl)amino)pyrazine-2-carboxamide] | 1.64 nM | – | – | – | – | – | – | – | – | – | – | – | – | – | – | – | 12.7 nM | 53.9 nM | 8.43 µM |
